Test results reported in PubChem BioAssay (NCI).
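Values below derive from 48-hour exposures of cells grown in 96-well plates, with endpoints linearly interpolated between the two concentrations bracketing the appropriate inhibition level. At the TGI there is no net growth.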

Assays:
Assay in all cases: growth of human tumour cells (NCI), 48 h
[1] = tested on: ACHN renal
[2] = tested on: NCI-H460 lung
[3] = tested on: CCRF-CEM leukemia
[4] = tested on: U251 CNS
[5] = tested on: DLD-1 colon
[6] = tested on: RXF 393 renal
[7] = tested on: KM20L2 colon
[8] = tested on: SK-MEL-28 melanoma
[9] = tested on: HCC-2998 colon
[10] = tested on: IGROV1 ovarian
[11] = tested on: SN12C renal
[12] = tested on: NCI-H23 lung
[13] = tested on: SW-620 colon
[14] = tested on: UO-31 renal
[15] = tested on: HOP-62 NSCLC
[16] = tested on: SK-OV-3 ovarian
[17] = tested on: EKVX NSCLC
[18] = tested on: SNB-19 CNS
[19] = tested on: DMS 273 small cell lung
[20] = tested on: TK-10 renal
[21] = tested on: SF-295 CNS
[22] = tested on: HCT-15 colon
[23] = tested on: 786-0 renal
[24] = tested on: SK-MEL-2 melanoma
[25] = tested on: M14 melanoma
[26] = tested on: OVCAR-8 ovarian
[27] = tested on: OVCAR-5 ovarian
[28] = tested on: MOLT-4 leukemia
[29] = tested on: K-562 leukemia
[30] = tested on: CAKI-1 renal
[31] = tested on: HOP-92 NSCLC
[32] = tested on: COLO 205 colon
[33] = tested on: LOX IMVI melanoma
[34] = tested on: NCI-H522 lung
[35] = tested on: A498 renal
[36] = tested on: A549 NSCLC
[37] = tested on: OVCAR-3 ovarian
[38] = tested on: HCT-116 colon
[39] = tested on: LXFL 529 NSCLC
[40] = tested on: SK-MEL-5 melanoma
[41] = tested on: HT29 colon
[42] = tested on: UACC-257 melanoma
[43] = tested on: RPMI-8226 leukemia
[44] = tested on: SF-268 CNS
[45] = tested on: SF-539 CNS
[46] = tested on: HL-60(TB) leukemia
[47] = tested on: OVCAR-4 ovarian
[48] = tested on: KM12 colon
[49] = tested on: SNB-75 CNS
[50] = tested on: UACC-62 melanoma
[51] = tested on: HOP-18 NSCLC
[52] = tested on: SNB-78 CNS
[53] = tested on: DMS 114 small cell lung
[54] = tested on: MALME-3M melanoma
[55] = tested on: M19-MEL melanoma
[56] = tested on: NCI-H226 lung

O=C(c1ccccc1)C(c1ccccc1)C1(O)C(=O)Nc2c(Cl)ccc(Cl)c21 (stereo unspecified)
TGI [1]: 31.7 µM
TGI [2]: 56.8 µM
TGI [3]: 46.6 µM
TGI [4]: 78.8 µM
TGI [5]: 35 µM
TGI [6]: 33.8 µM
TGI [7]: > 100 µM
TGI [8]: 34.6 µM
TGI [9]: 77.7 µM
TGI [10]: 42.7 µM
TGI [11]: 31.8 µM
TGI [12]: 35.6 µM
TGI [13]: 37.9 µM
TGI [14]: 39.1 µM
TGI [15]: 49.8 µM
TGI [16]: > 60.8 µM
TGI [17]: 32.6 µM
TGI [18]: > 85.6 µM
TGI [19]: 42.9 µM
TGI [20]: > 67.3 µM
TGI [21]: 31.1 µM
TGI [22]: 36.2 µM
TGI [23]: 39.9 µM
TGI [24]: 39.5 µM
TGI [25]: 30.7 µM
TGI [26]: 44.7 µM
TGI [27]: 35.5 µM
TGI [28]: 49 µM
TGI [29]: 35 µM
TGI [30]: 39.8 µM
TGI [31]: 35.4 µM
TGI [32]: 38.5 µM
TGI [33]: 28 µM
TGI [34]: 34.9 µM
TGI [35]: 64.6 µM
TGI [36]: > 69.1 µM
TGI [37]: 32.4 µM
TGI [38]: 31 µM
TGI [39]: 31.2 µM
TGI [40]: 34.1 µM
TGI [41]: 47.1 µM
TGI [42]: 29.9 µM
TGI [43]: 40.8 µM
TGI [44]: 54 µM
TGI [45]: 44.5 µM
TGI [46]: 38.5 µM
TGI [47]: 13.4 µM
TGI [48]: 50.5 µM
TGI [49]: 39.2 µM
TGI [50]: 33.8 µM
TGI [51]: 49.3 µM
TGI [52]: 64 µM
TGI [53]: 37.2 µM
TGI [54]: 31.3 µM

Clc1ccc(OCCSCCCCCCCCCCSCCOc2ccc(Cl)cc2)cc1
TGI [1]: > 100 µM
TGI [2]: > 100 µM
TGI [3]: > 100 µM
TGI [4]: > 100 µM
TGI [5]: > 100 µM
TGI [6]: > 100 µM
TGI [7]: > 100 µM
TGI [8]: > 100 µM
TGI [9]: > 100 µM
TGI [10]: > 100 µM
TGI [11]: > 100 µM
TGI [55]: > 100 µM
TGI [12]: > 100 µM
TGI [13]: > 100 µM
TGI [14]: > 100 µM
TGI [15]: > 100 µM
TGI [16]: > 100 µM
TGI [17]: > 100 µM
TGI [18]: > 100 µM
TGI [19]: > 100 µM
TGI [20]: > 100 µM
TGI [21]: > 100 µM
TGI [22]: > 100 µM
TGI [23]: > 100 µM
TGI [24]: > 100 µM
TGI [26]: > 100 µM
TGI [27]: > 100 µM
TGI [28]: > 100 µM
TGI [29]: > 100 µM
TGI [30]: > 100 µM
TGI [31]: > 100 µM
TGI [32]: > 100 µM
TGI [33]: > 100 µM
TGI [34]: > 100 µM
TGI [35]: > 100 µM
TGI [36]: > 100 µM
TGI [37]: > 100 µM
TGI [40]: > 100 µM
TGI [41]: > 100 µM
TGI [42]: > 100 µM
TGI [43]: > 100 µM
TGI [44]: > 100 µM
TGI [56]: > 100 µM
TGI [45]: > 100 µM
TGI [46]: > 100 µM
TGI [48]: > 100 µM
TGI [49]: > 100 µM
TGI [50]: > 100 µM
TGI [51]: > 100 µM
TGI [52]: > 100 µM
TGI [53]: > 100 µM
TGI [54]: > 100 µM
